Patent US8076352B2, “Administration of carboline derivatives useful in the treatment of cancer and other diseases” (PTC Therapeutics, Inc., priority 2004, dated 2011)

What follows are compounds tested on hypoxia-inducible endogenous VEGF expression in HeLa cells (assay: Hypoxia-inducible endogenous VEGF expression, VEGF ELISA of conditioned media (dose-response EC50)). Details: HeLa cells, hypoxic conditions (1% O2).
Format: cell-based
Outline: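 HeLa cells were cultured 24-48 h under hypoxia (1% O2, 5% CO2, balance N2) with or without compound. Conditioned-media VEGF protein was measured by ELISA against a standard curve. EC50 and CC50 come from percentage-inhibition curves over, e.g., seven concentrations, with maximal inhibition set at 100%.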
`O=C(Oc1ccc(Cl)cc1)N1CCc2c([nH]c3ccc(Br)cc23)C1c1ccc(C(F)(F)F)cc1` (stereo not drawn) [Compound 570] showed an EC50 of under 8 nM.
`CC(C)c1ccc(C2c3[nH]c4ccc(Br)cc4c3CCN2C(=O)Oc2ccc(Cl)cc2)cc1` (stereo not drawn) [Compound 572] showed an EC50 of under 8 nM.

Same assay, conditions: Homo sapiens, HeLa cells, hypoxic conditions (1% O2)
`CCOC(=O)N1CCc2c([nH]c3ccc(Cl)cc23)C1c1cccc(C(=O)N2CCN(CC)CC2)c1` (stereo not drawn) [Compound 525] gave an EC50 of 200 to 1000 nM.
Work on `CCOC(=O)N1CCc2c([nH]c3ccc(Cl)cc23)C1c1ccc(C(=O)N2CCC(N3CCCC3)CC2)cc1` (stereo not drawn) [Compound 527] yielded an EC50 of 200 to 1000 nM.
`CCOC(=O)N1CCc2c([nH]c3ccc(Cl)cc23)C1C(C)Cc1ccc(C(C)(C)C)cc1` (stereo not drawn) [Compound 528] showed an EC50 of 200 to 1000 nM.
With `CCOC(=O)N1CCc2c([nH]c3ccc(Cl)cc23)C1c1cccc(C(=O)N2CCN(C)CC2)c1` (stereo not drawn) [Compound 529] the EC50 was 200 to 1000 nM.
Compound `CCOC(=O)N1CCc2c([nH]c3ccc(Cl)cc23)C1c1ccc(C(=O)N2CCC(N3CCCCC3)CC2)cc1` (stereo not drawn) [Compound 531] has an EC50 of 200 to 1000 nM.
Work on `CC(CC1NCCc2c1[nH]c1ccc(Cl)cc21)c1ccccc1` (stereo not drawn) [Compound 532] yielded an EC50 of 200 to 1000 nM.
Work on `CCOC(=O)N1CCc2c([nH]c3ccc(Cl)cc23)C1c1ccc(C(=O)NCCCn2ccnc2)cc1` (stereo not drawn) [Compound 533] yielded an EC50 of 200 to 1000 nM.
`CCOC(=O)N1CCc2c([nH]c3ccc(Cl)cc23)C1c1ccc(C(=O)NCCCN2CCOCC2)cc1` (stereo not drawn) [Compound 534] showed an EC50 of 200 to 1000 nM.
`CCOC(=O)N1CCc2c([nH]c3ccc(Br)cc23)C1c1ccc(CNCCN2CCOCC2)cc1` (stereo not drawn) [Compound 535] gave an EC50 of 200 to 1000 nM.
Work on `CCOC(=O)N1CCc2c([nH]c3ccc(Br)cc23)C1c1ccc(CN2CCCN(C)CC2)cc1` (stereo not drawn) [Compound 541] yielded an EC50 of 200 to 1000 nM.
Work on `CCOC(=O)N1CCc2c([nH]c3ccc(Cl)cc23)C1c1ccc(C(N)=O)cc1` (stereo not drawn) [Compound 542] yielded an EC50 of 200 to 1000 nM.
`O=C1NC2CSC(CCCCC(=O)OCCOc3ccc(C4c5[nH]c6ccc(Cl)cc6c5CCN4C(=O)Oc4ccc(Cl)cc4)cc3)C2N1` (stereo not drawn) [Compound 544] was tested, and the EC50 was under 8 nM.
`CCOC(=O)N1CCc2c([nH]c3ccc(Cl)cc23)C1C(C)CC` (stereo not drawn) [Compound 547] gave an EC50 of 200 to 1000 nM.
In the case of `CCOC(=O)N1CCc2c([nH]c3ccc(Cl)cc23)C1c1cccc(C(=O)NCCN2CCOCC2)c1` (stereo not drawn) [Compound 552], the EC50 is reported as 200 to 1000 nM.
For `CCOC(=O)N1CCc2c([nH]c3ccc(Cl)cc23)C1C(C)Cc1ccc2c(c1)OCO2` (stereo not drawn) [Compound 553], the EC50 was 200 to 1000 nM.
With `CCOC(=O)N1CCc2c([nH]c3ccc(Cl)cc23)C1c1cccc(C(=O)NCCOC)c1` (stereo not drawn) [Compound 556] the EC50 was 200 to 1000 nM.
`CCOC(=O)N1CCc2c([nH]c3ccc(Cl)cc23)C1c1ccc(C(=O)N(C)CCCN(C)C)cc1` (stereo not drawn) [Compound 558] was tested, and the EC50 was 200 to 1000 nM.
For `CCC(Br)C(=O)N1CCc2c([nH]c3ccc(Cl)cc23)C1c1ccc(OC)cc1` (stereo not drawn) [Compound 559], the EC50 was 200 to 1000 nM.
`CCOC(=O)N1CCc2c([nH]c3ccc(Br)cc23)C1c1ccc(C(=O)N2CCN(CCCN(C)C)CC2)cc1` (stereo not drawn) [Compound 560] was tested, and the EC50 was over 1000 nM.
`CCOC(=O)N1CCc2c([nH]c3ccc(Cl)cc23)C1c1ccc(C(=O)N2CCC(NC(C)=O)C2)cc1` (stereo not drawn) [Compound 561] showed an EC50 of over 1000 nM.
`CCOC(=O)N1CCc2c([nH]c3ccc(Cl)cc23)C1c1cccc(C(=O)N2CCN(CCOC)CC2)c1` (stereo not drawn) [Compound 562] gave an EC50 of over 1000 nM.
Compound `CCOC(=O)N1CCc2c([nH]c3ccc(Cl)cc23)C1c1ccc(C(=O)N(C)CCN(C)C)cc1` (stereo not drawn) [Compound 563] has an EC50 of over 1000 nM.
With `CC(C)(C)CC1NCCc2c1[nH]c1ccc(Cl)cc21` (stereo not drawn) [Compound 565] the EC50 was over 1000 nM.
`CCOC(=O)N1CCc2c([nH]c3ccc(Cl)cc23)C1c1cccc(CN2CCN(CCOC)CC2)c1` (stereo not drawn) [Compound 567] showed an EC50 of over 1000 nM.
`CSC(C)CC1NCCc2c1[nH]c1ccc(Cl)cc21` (stereo not drawn) [Compound 568] gave an EC50 of over 1000 nM.
With `O=C(Oc1ccc(Cl)cc1)N1CCc2c([nH]c3ccc(Cl)cc23)C1c1ccc(OCCO)cc1` (stereo not drawn) [Compound 571] the EC50 was 200 to 1000 nM.
`O=C(Oc1ccc(F)cc1)N1CCc2c([nH]c3ccc(Cl)cc23)C1c1ccc(O)cc1` (stereo not drawn) [Compound 575] was tested, and the EC50 was 200 to 1000 nM.
`O=C(Oc1ccc(F)cc1)Oc1ccc(C2c3[nH]c4ccc(Cl)cc4c3CCN2C(=O)Oc2ccc(F)cc2)cc1` (stereo not drawn) [Compound 576] gave an EC50 of 40 to 200 nM.
